Source: patent EP4559922A1, “ANTIHISTAMINE COMPOUND, PREPARATION METHOD THEREFOR AND USE THEREOF” (HC Synthetic Pharmaceutical Co., Ltd., priority 2022, dated 2024)
≈ marks a conversion by molar mass, not a printed value.

Legend:
[1] = test system: histamine-induced asthma in guinea pigs; assay: Antiasthmatic effect on histamine-induced asthma in guinea pigs (latency period); assay type: in vivo; settings: 1 mg/kg oral gavage, sixty minutes after administration; histamine hydrochloride spray; capped at 8 minutes; X±s, n = 5
Description: The guinea pigs were placed in a polymethyl methacrylate bell jar and a histamine hydrochloride solution was sprayed ultrasonically (0.8 mg/mL) for 40 seconds. The time point at which the guinea pigs developed asthma was recorded. The time of convulsion and fall was taken as the latency period. Guinea pigs with a latency period exceeding 180 seconds were not selected. […] The guinea pigs were administered by oral gavage at a dose of 2 mL/kg·bw. Sixty minutes after the administration, the guinea pigs were placed in bell jars, and histamine hydrochloride solution was sprayed under the same conditions as in the previous selection. The latency period for the onset of asthma was recorded. […] The results were processed statistically.

[2] = Antagonism of histamine-induced contraction of isolated ileal smooth muscle of guinea pigs; settings: relative to tone after adding histamine; x±s, n = 8; 3 min
Description: (§1) The guinea pig was knocked unconscious with a wooden stick, and the abdomen was immediately dissected to separate the ileum about 15 cm in length. The contents of the intestinal segment were flushed with Tyrode's solution and placed in Tyrode's solution at a constant temperature of 37°C for later use, and oxygen was supplied simultaneously. The experimental intestinal tract (1 cm in length) was cut and placed into 20 ml of Tyrode's solution at a constant temperature of 37°C with a continuous oxygen supply. One end of the intestine was fixed on the ventilation hook and the other end was connected to the muscle tone transducer and led to the computer interface. The muscle tone value of the ileal smooth muscle was recorded with a BL system. The experiment was carried out after the intestinal segment contraction became stable.
(§2) After the ileal peristalsis curve stabilized, the tone values before adding the compound were recorded, and then 0.05 mL of histamine was added. […] The operation was repeated 8 times. The antispasmodic percentage was calculated using the following equation. Antispasmodic percentage =; (Tone value after adding histamine−Tone value after adding subject compound)/(Tone value after adding histamine) × 100% [formula]

[3] = test system: histamine; assay: as above; settings: 3 minutes after adding 0.05 mL compound following histamine; x±s, n = 8
Description: as §1, §2

[4] = test system: isolated ileal smooth muscle of guinea pigs; assay: Effect on muscle tone of isolated ileal smooth muscle of guinea pigs (no histamine added); settings: X±s
Description: as §1
After the ileum contraction curve stabilized, the tone values before adding the drug were recorded, then the drug or DMSO was added, and the average tone value of the ileum contraction curve at that point was recorded 5 minutes later. The operation was repeated 8 times. The antispasmodic percentage was calculated according to the following formula. Antispasmodic percentage =; (Tone value before adding subject compound−Tone value after adding subject compound)/(Tone value before adding subject compound); × 100% [formula]

[5] = Solubility of the compounds in water, methanol and isopropanol; assay type: physicochemical; settings: solvent water
Description: The solubility in water, methanol, and isopropanol of the compounds of the present disclosure and the comparative compounds were measured separately.

[6] = Accelerated stability test; assay type: physicochemical; settings: 40°C ± 2°C, relative humidity 75% ± 5%

- Solubility in Water [5]: 20 mg/mL (≈ 43.2 mM)
- Content ([6]; Month 0): 99.7%
- Description ([6]; Month 0): White powder
- Related substances ([6]; Month 0): 0.03%
- Description ([6]; Month 1): White powder
- Related substances ([6]; Month 1): 0.05%
- Description ([6]; Month 2): White powder
- Related substances ([6]; Month 2): 0.10%
- Description ([6]; Month 3): White powder
- Related substances ([6]; Month 3): 0.15%
- Description ([6]; Month 6): White powder
- Related substances ([6]; Month 6): 0.34%
- remaining at 730 h ([6]; storage 75% relative humidity, Month 1, read-out: Content): 99.7%
- remaining at 1460 h ([6]; storage 75% relative humidity, Month 2, read-out: Content): 99.6%
- remaining at 2190 h ([6]; storage 75% relative humidity, Month 3, read-out: Content): 99.5%
- remaining at 4380 h ([6]; storage 75% relative humidity, Month 6, read-out: Content): 99.2%
Structure (SMILES): O=C1Cc2ccccc2C(=C2CCN(CCCOCOP(=O)(O)O)CC2)c2ccsc21 [Compound III-7]
- Post-administration latency period [1]: 377.23 ± 50.23 s
- Antispasmodic percentage [2]: 66.28±16.16%
- Smooth muscle tone After administration [3]: 1.16 ± 0.22 g
- Smooth muscle tone After administration ([4]; 5 minutes after adding drug, n = 8): 1.20 ± 0.25 g
- Antispasmodic percentage ([4]; relative to tone before adding compound, n = 8, 5 min, 5 min): 30.23±19.04%
